Results reported in US8193189B2, “Quinoxaline derivatives as tyrosine kinase activity inhibitors” (Novartis AG, priority 2007, dated 2012).

Experiments:
GST-JAK1(866-1154) = molecular target: T1, GST-JAK1(866-1154) (Homo sapiens, UniProt P23458); assay: EPK JAK-family kinases profiling assay (Caliper mobility shift), JAK1; assay type: biochemical; conditions: ATP 40 μM, 50 nM kinase
T1 construct: GST-JAK1(866-1154); made in house
In short: (§1)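 Turnover was read as substrate/product ratio after mobility-shift capillary-like separation of each reaction, run for 60 min at 30 °C with GST-tagged kinase domain, labelled peptide and ATP, and terminated with EDTA stop buffer.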

GST-JAK2(808-1132) = molecular target: T2, GST-JAK2(808-1132) (Homo sapiens, UniProt O60674); assay: EPK JAK-family kinases profiling assay (Caliper mobility shift), JAK2; assay type: biochemical; conditions: ATP 20 μM, 1.8 nM kinase
T2 construct: GST-JAK2(808-1132); purchased Invitrogen (Carlsbad, USA) #4288
In short: as §1

GST-JAK3(811-1124) = molecular target: T3, GST-JAK3(811-1124) (Homo sapiens, UniProt P52333); assay: EPK JAK-family kinases profiling assay (Caliper mobility shift), JAK3; assay type: biochemical; conditions: ATP 80 μM, 6 nM kinase
T3 construct: GST-JAK3(811-1124); made in house
In short: as §1

GST-TYK2(888-1187) = molecular target: T4, GST-TYK2(888-1187) (Homo sapiens, UniProt P29597); assay: EPK JAK-family kinases profiling assay (Caliper mobility shift), TYK2; assay type: biochemical; conditions: ATP 30 μM, 40 nM kinase
T4 construct: GST-TYK2(888-1187); made in house
T4 sequence (P29597 888-1187): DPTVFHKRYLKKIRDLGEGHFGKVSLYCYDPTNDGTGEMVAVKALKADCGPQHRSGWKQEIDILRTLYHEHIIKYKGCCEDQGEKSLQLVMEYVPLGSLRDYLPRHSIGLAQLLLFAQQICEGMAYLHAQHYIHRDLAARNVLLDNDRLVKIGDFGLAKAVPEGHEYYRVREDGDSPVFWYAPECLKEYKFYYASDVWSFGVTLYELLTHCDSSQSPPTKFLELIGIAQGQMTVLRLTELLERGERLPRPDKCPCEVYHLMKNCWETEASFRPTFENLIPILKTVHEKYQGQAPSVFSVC
In short: as §1

[1] = test system: JAK/STAT pathway (JAK1/JAK2-dependent nuclear translocation of STAT1-GFP); assay: Inhibition of the JAK/STAT pathway: IFN-γ stimulated nuclear translocation of STAT1-GFP in HT1080 fibrosarcoma cells; assay type: cell-based; conditions: Homo sapiens, HT-1080; HT1080 STAT1-GFP cells, 100 ng/ml IFN-γ 2 hours, compound added 30 min before; read-out: STAT1translo IC50
In short: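 HT1080 cells stably expressing STAT1-GFP, compounds added 30 min before IFN-γ stimulation at final 10 μM down to 0.003 μM (0.1% DMSO). Nuclear-cytoplasmic GFP intensity differential quantified by automated imaging with Hoechst nuclear mask, ≥1000 cells per well, averaged per well.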

T2 sequence (O60674 808-1132): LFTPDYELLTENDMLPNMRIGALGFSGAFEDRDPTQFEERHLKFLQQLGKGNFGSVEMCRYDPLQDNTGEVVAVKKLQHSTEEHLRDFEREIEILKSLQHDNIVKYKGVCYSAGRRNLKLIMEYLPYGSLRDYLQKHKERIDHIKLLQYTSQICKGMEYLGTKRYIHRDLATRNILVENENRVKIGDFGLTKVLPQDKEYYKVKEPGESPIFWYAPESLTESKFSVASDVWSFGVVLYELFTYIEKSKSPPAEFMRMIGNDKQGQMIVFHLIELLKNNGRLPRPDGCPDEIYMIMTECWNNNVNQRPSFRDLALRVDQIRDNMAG
T3 sequence (P52333 811-1124): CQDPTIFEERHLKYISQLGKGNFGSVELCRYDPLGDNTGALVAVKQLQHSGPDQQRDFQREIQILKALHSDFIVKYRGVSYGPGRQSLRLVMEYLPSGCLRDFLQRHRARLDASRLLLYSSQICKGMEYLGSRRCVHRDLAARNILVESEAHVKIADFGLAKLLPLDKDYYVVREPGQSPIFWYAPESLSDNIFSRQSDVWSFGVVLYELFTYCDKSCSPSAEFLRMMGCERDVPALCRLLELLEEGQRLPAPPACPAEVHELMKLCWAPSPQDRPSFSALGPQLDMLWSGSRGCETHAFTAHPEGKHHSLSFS
T1 sequence (P23458 866-1154): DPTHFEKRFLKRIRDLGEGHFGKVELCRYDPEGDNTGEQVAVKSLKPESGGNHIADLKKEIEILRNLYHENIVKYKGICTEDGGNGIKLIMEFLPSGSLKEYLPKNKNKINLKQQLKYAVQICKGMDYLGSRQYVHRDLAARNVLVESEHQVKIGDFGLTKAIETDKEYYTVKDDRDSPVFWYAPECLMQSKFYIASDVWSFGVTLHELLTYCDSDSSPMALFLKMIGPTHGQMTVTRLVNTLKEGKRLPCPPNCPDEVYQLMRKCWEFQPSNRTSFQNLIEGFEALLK

| Compound | IC50 (GST-JAK1(866-1154)) | IC50 (GST-JAK2(808-1132)) | IC50 (GST-JAK3(811-1124)) | IC50 (GST-TYK2(888-1187)) | IC50 [1] |
| --- | --- | --- | --- | --- | --- |
| COc1cc(-c2cnc3cccc(-c4ccc(CN5CCS(=O)(=O)CC5)c(F)c4)c3n2)ccc1OCCCN1CCOCC1 [Example 85, 8-[4-(1,1-Dioxido-thiomorpholin-4-ylmethyl)-3-fluoro-phenyl]-2-[3-methoxy-4-(3-morpholin-4-yl-propoxy)-phenyl]-quinoxaline] | 12.5 nM | 3.25 nM | 220 nM | 115 nM | 240 nM |
| O=C1CN(Cc2c(F)cc(-c3cccc4ncc(-c5cnn(C6CCOCC6)c5)nc34)cc2F)CCN1 [Example 118, 4-(2,6-Difluoro-4-{3-[1-(tetrahydro-pyran-4-yl)-1H-pyrazol-4-yl]-quinoxalin-5-yl}-benzyl)-piperazin-2-one] | 470 nM | 25 nM | > 10000 nM | 955 nM | 360 nM |
| CN1CCN(c2ccc(-c3cnc4cccc(-c5cc(F)c(CN6CCS(=O)(=O)CC6)c(F)c5)c4n3)cn2)CC1 [Example 108, 8-[4-(1,1-Dioxido-thiomorpholin-4-ylmethyl)-3,5-difluoro-phenyl]-2-[6-(4-methyl-piperazin-1-yl)-pyridin-3-yl]-quinoxaline] | 254 nM | 24.5 nM | 2400 nM | 417 nM | 150 nM |
| CN(C)CCN(C)C(=O)c1ccc(-c2cnc3cccc(-c4cc(F)c(CN5CCOCC5)c(F)c4)c3n2)cn1 [Example 110, 5-[8-(3,5-Difluoro-4-morpholin-4-ylmethyl-phenyl)-quinoxalin-2-yl]-pyridine-2-carboxylic acid (2-dimethylamino-ethyl)-methyl-amide] | 5550 nM | 575 nM | > 10000 nM | 9300 nM | 1590 nM |
| COc1cc(-c2cnc3cccc(-c4ccc(CC(=O)N5CCOCC5)cc4)c3n2)ccc1OCCN1CCOCC1 [Example 34, 2-(4-{3-[3-Methoxy-4-(2-morpholin-4-yl-ethoxy)-phenyl]-quinoxalin-5-yl}-phenyl)-1-morpholin-4-yl-ethanone] | 27 nM | 4.1 nM | 490 nM | 88 nM | 338 nM |
| CCN1CCN(c2ccc(-c3cnc4cccc(-c5cc(F)c(CN6CCOCC6)c(F)c5)c4n3)cc2C)CC1 [Example 103, 8-(3,5-Difluoro-4-morpholin-4-ylmethyl-phenyl)-2-[4-(4-ethyl-piperazin-1-yl)-3-methyl-phenyl]-quinoxaline] | 1150 nM | 30.5 nM | 3600 nM | 1200 nM | 824 nM |
| CN1CCN(c2ccc(-c3cnc4cccc(-c5cc(F)c(C(=O)N6CCOCC6)c(F)c5)c4n3)cc2)CC1 [Example 89, (2,6-Difluoro-4-{3-[4-(4-methyl-piperazin-1-yl)-phenyl]-quinoxalin-5-yl}-phenyl)-morpholin-4-yl-methanone] | 135 nM | 34 nM | 3950 nM | 450 nM | 1340 nM |
| COc1cc(-c2cnc3cccc(-c4cc(F)c(CN5CCS(=O)(=O)CC5)c(F)c4)c3n2)ccn1 [Example 106, 8-[4-(1,1-Dioxido-thiomorpholin-4-ylmethyl)-3,5-difluoro-phenyl]-2-(2-methoxy-pyridin-4-yl)-quinoxaline] | 365 nM | 82 nM | 195 nM | 1970 nM | 202 nM |
| COc1cc(-c2cnc3cccc(-c4ccc(C(=O)N5CCOCC5)c(F)c4)c3n2)ccc1OCCN1CCOCC1 [Example 35, (2-Fluoro-4-{3-[3-methoxy-4-(2-morpholin-4-yl-ethoxy)-phenyl]-quinoxalin-5-yl}-phenyl)-morpholin-4-yl-methanone] | 94 nM | 11.9 nM | 1860 nM | 520 nM | 1720 nM |
| CN1CCN(c2ccc(-c3cnc4cccc(-c5cc(F)c(CN6CCOCC6)c(F)c5)c4n3)cc2)CC1 [Example 87, 8-(3,5-Difluoro-4-morpholin-4-ylmethyl-phenyl)-2-[4-(4-methyl-piperazin-1-yl)-phenyl]-quinoxaline] | 225 nM | 33.5 nM | 3500 nM | 720 nM | 1320 nM |
| CCN1CCN(Cc2ccc(-c3cnc4cccc(-c5ccc(CN6CCOCC6)c(F)c5)c4n3)cc2C)CC1 [Example 93, 2-[4-(4-Ethyl-piperazin-1-ylmethyl)-3-methyl-phenyl]-8-(3-fluoro-4-morpholin-4-ylmethyl-phenyl)-quinoxaline] | 185 nM | 22 nM | 1250 nM | 670 nM | 3010 nM |
| Cc1cc(-c2cnc3cccc(-c4cc(F)c(CN5CCS(=O)(=O)CC5)c(F)c4)c3n2)ccc1C(=O)N1CCN(C)CC1 [Example 44, (4-{8-[4-(1,1-Dioxido-thiomorpholin-4-ylmethyl)-3,5-difluoro-phenyl]-quinoxalin-2-yl}-2-methyl-phenyl)-(4-methyl-piperazin-1-yl)-methanone] | 150 nM | 6.55 nM | 405 nM | 240 nM | 49 nM |
| O=C(c1c(F)cc(-c2cccc3ncc(-c4cnn(C5CCOCC5)c4)nc23)cc1F)N1CCOCC1 [Example 119, (2,6-Difluoro-4-{3-[1-(tetrahydro-pyran-4-yl)-1H-pyrazol-4-yl]-quinoxalin-5-yl}-phenyl)-morpholin-4-yl-methanone] | 250 nM | 9.85 nM | 6400 nM | 280 nM | 340 nM |
| Cc1cc(-c2cnc3cccc(-c4ccc(CN5CCS(=O)(=O)CC5)cc4)c3n2)ccc1C(=O)N1CCOCC1 [Example 63, (4-{8-[4-(1,1-Dioxido-thiomorpholin-4-ylmethyl)-phenyl]-quinoxalin-2-yl}-2-methyl-phenyl)-morpholin-4-yl-methanone] | 370 nM | 77.5 nM | 4300 nM | 1450 nM | 986 nM |
| CN1CCN(c2ccc(-c3cnc4cccc(-c5cc(F)c(CN6CCOCC6)c(F)c5)c4n3)cn2)CC1 [Example 107, 8-(3,5-Difluoro-4-morpholin-4-ylmethyl-phenyl)-2-[6-(4-methyl-piperazin-1-yl)-pyridin-3-yl]-quinoxaline] | 1350 nM | 95.5 nM | 9800 nM | 2950 nM | 2470 nM |
| Cc1cc(-c2cnc3cccc(-c4cc(F)c(CN5CCS(=O)(=O)CC5)c(F)c4)c3n2)ccc1C(=O)N1CCOCC1 [Example 64, (4-{8-[4-(1,1-Dioxido-thiomorpholin-4-ylmethyl)-3,5-difluoro-phenyl]-quinoxalin-2-yl}-2-methyl-phenyl)-morpholin-4-yl-methanone] | 68 nM | 4.95 nM | 290 nM | 165 nM | 46.5 nM |
| COCCOc1ccc(-c2cnc3cccc(-c4ccc(CN5CCOCC5)c(F)c4)c3n2)cc1OC [Example 51, 8-(3-Fluoro-4-morpholin-4-ylmethyl-phenyl)-2-[3-methoxy-4-(2-methoxy-ethoxy)-phenyl]-quinoxaline] | 120 nM | 31.5 nM | > 10000 nM | > 10000 nM | 2040 nM |
| CN1CCN(c2ccc(-c3cnc4cccc(-c5ccc(CC(=O)N6CCOCC6)c(F)c5)c4n3)cc2)CC1 [Example 88, 2-(2-Fluoro-4-{3-[4-(4-methyl-piperazin-1-yl)-phenyl]-quinoxalin-5-yl}-phenyl)-1-morpholin-4-yl-ethanone] | 27 nM | 6.55 nM | 840 nM | 113 nM | 700 nM |
| Fc1cc(-c2cccc3ncc(-c4cnn(C5CCOCC5)c4)nc23)cc(F)c1CN1CCOCC1 [Example 117, 8-(3,5-Difluoro-4-morpholin-4-ylmethyl-phenyl)-2-[1-(tetrahydro-pyran-4-yl)-1H-pyrazol-4-yl]-quinoxaline] | 76.5 nM | < 3 nM | 1040 nM | 125 nM | 60 nM |
| O=S1(=O)CCN(Cc2c(F)cc(-c3cccc4ncc(-c5cnn(C6CCNCC6)c5)nc34)cc2F)CC1 [Example 96, 8-[4-(1,1-Dioxido-thiomorpholin-4-ylmethyl)-3,5-difluoro-phenyl]-2-(1-piperidin-4-yl-1H-pyrazol-4-yl)-quinoxaline] | 53 nM | < 3 nM | 260 nM | 50.5 nM | 35.5 nM |
| COCCOc1ccc(-c2cnc3cccc(-c4cc(F)c(CN5CCOCC5)c(F)c4)c3n2)cc1OC [Example 50, 8-(3,5-Difluoro-4-morpholin-4-ylmethyl-phenyl)-2-[3-methoxy-4-(2-methoxy-ethoxy)-phenyl]-quinoxaline] | 38 nM | 7.05 nM | > 10000 nM | 1600 nM | 1650 nM |
